{"source": "ChEMBL document CHEMBL1147055", "about": "“Noxious compounds activate TRPA1 ion channels through covalent modification of cysteines” (Nature, 2007)", "key": {"[1]": {"tested_on": "Transient receptor potential cation channel subfamily A member 1 (Mus musculus), Q8BLA8 [C422S]", "sequence (Q8BLA8 whole entry C422S)": "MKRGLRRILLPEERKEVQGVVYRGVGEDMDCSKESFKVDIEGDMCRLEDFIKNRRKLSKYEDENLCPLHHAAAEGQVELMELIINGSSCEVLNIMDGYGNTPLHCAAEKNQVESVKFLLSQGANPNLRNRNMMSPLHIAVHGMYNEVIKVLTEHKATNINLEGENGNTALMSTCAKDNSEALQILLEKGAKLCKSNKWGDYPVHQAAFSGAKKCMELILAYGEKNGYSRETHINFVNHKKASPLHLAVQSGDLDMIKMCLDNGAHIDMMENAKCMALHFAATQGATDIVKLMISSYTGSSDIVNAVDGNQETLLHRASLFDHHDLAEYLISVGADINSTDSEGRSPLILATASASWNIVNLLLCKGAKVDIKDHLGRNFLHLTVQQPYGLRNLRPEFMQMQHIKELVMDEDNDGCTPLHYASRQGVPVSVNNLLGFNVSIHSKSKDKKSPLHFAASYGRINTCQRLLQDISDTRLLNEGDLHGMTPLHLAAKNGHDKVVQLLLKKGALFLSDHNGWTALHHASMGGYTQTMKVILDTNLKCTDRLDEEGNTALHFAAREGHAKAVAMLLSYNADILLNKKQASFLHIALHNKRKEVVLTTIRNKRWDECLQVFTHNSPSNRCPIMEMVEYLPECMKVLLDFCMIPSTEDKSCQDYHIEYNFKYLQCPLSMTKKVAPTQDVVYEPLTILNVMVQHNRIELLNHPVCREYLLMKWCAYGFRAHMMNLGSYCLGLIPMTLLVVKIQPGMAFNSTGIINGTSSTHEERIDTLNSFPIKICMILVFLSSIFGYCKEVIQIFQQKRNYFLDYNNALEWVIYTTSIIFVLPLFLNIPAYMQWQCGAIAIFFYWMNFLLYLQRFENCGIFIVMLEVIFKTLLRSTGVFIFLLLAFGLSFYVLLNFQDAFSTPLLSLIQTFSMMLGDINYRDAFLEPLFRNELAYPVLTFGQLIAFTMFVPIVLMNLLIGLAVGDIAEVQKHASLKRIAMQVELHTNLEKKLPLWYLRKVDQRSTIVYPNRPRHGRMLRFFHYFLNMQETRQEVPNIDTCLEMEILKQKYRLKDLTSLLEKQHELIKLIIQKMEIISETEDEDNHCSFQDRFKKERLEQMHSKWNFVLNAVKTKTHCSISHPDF", "assay": "Activation of mouse TRPA1 C422S mutant expressed in CHO cells at 100 uM by calcium imaging FLIPR assay", "assay_type": "cell-based"}, "[2]": {"target": "Transient receptor potential cation channel subfamily A member 1 (Homo sapiens, UniProt O75762)", "sequence (O75762 whole entry)": "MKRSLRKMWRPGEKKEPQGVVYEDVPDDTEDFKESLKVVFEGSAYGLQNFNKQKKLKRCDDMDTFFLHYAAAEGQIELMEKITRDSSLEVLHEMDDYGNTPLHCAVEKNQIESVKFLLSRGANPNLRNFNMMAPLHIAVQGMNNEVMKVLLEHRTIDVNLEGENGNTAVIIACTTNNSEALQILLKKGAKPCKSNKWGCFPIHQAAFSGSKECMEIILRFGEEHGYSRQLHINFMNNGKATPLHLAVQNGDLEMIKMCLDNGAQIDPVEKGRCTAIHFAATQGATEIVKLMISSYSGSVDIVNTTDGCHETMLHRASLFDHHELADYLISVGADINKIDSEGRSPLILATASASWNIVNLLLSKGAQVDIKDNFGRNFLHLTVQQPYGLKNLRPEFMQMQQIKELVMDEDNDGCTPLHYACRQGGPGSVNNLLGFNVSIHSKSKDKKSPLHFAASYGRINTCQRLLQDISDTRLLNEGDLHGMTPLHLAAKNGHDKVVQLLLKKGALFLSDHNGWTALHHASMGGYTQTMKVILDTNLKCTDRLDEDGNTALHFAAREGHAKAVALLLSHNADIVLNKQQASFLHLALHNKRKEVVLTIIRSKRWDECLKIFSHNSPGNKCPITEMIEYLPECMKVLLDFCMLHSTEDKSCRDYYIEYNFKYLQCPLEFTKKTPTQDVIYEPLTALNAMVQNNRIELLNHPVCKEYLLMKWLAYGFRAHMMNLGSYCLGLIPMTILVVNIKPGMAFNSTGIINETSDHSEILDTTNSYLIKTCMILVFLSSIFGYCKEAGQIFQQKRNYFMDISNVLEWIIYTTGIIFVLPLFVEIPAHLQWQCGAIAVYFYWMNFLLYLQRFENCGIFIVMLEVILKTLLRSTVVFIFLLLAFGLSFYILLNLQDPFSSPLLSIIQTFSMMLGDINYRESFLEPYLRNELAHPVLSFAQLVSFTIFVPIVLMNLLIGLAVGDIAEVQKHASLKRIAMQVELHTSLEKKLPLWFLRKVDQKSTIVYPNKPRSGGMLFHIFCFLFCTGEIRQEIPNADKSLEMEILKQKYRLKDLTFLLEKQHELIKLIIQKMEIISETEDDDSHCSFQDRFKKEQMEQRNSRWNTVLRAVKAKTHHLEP", "assay": "Activation of TRPA1"}, "[3]": {"tested_on": "Transient receptor potential cation channel subfamily A member 1 (Mus musculus), Q8BLA8 [C415S]", "sequence (Q8BLA8 whole entry C415S)": "as the sequence (Q8BLA8 whole entry C422S) above, with C415S, S422C counted along it", "assay": "Activation of mouse TRPA1 C415S mutant expressed in CHO cells at 100 uM by calcium imaging FLIPR assay", "assay_type": "cell-based"}, "[4]": {"tested_on": "Transient receptor potential cation channel subfamily A member 1 (Mus musculus), Q8BLA8 [C622S]", "sequence (Q8BLA8 whole entry C622S)": "as the sequence (Q8BLA8 whole entry C422S) above, with S422C, C622S counted along it", "assay": "Activation of mouse TRPA1 C622S mutant expressed in CHO cells at 100 uM by calcium imaging FLIPR assay", "assay_type": "cell-based"}, "[5]": {"target": "Transient receptor potential cation channel subfamily A member 1 (Mus musculus) (UniProt Q8BLA8)", "sequence (Q8BLA8 whole entry)": "as the sequence (Q8BLA8 whole entry C422S) above, with S422C counted along it", "assay": "Binding affinity to mouse TRPA1 expressed in HEK293T cells at 100 uM assessed as covalent protein modification", "assay_type": "cell-based", "settings": "HEK-293T"}, "[6]": {"target": "Transient receptor potential cation channel subfamily A member 1 (Mus musculus) (UniProt Q8BLA8)", "assay": "Activation of mouse TRPA1 expressed in HEK293T cells at 30 uM assessed as activation of cation conductance by electrophysiology", "assay_type": "cell-based", "settings": "HEK-293T"}, "[7]": {"target": "Transient receptor potential cation channel subfamily A member 1 (Mus musculus) (UniProt Q8BLA8)", "assay": "Activation of mouse TRPA1 expressed in CHO cells assessed as increase in intracellular calcium level", "assay_type": "cell-based"}, "[8]": {"target": "Transient receptor potential cation channel subfamily A member 1 (Mus musculus) (UniProt Q8BLA8)", "assay": "Activation of mouse TRPA1 expressed in CHO cells at 100 uM by calcium imaging FLIPR assay", "assay_type": "cell-based"}, "[9]": {"target": "Transient receptor potential cation channel subfamily A member 1 (Mus musculus) (UniProt Q8BLA8)", "assay": "Activation of mouse TRPA1 expressed in HEK293T cells at 100 uM assessed as activation of cation conductance by electrophysiology", "assay_type": "cell-based", "settings": "HEK-293T"}, "[10]": {"target": "Transient receptor potential cation channel subfamily A member 1 (Mus musculus) (UniProt Q8BLA8)", "assay": "Activation of mouse TRPA1 expressed in HEK293T cells at 50 uM assessed as activation of cation conductance by electrophysiology", "assay_type": "cell-based", "settings": "HEK-293T"}, "[11]": {"target": "Transient receptor potential cation channel subfamily A member 1 (Mus musculus) (UniProt Q8BLA8)", "assay": "Activation of mouse TRPA1 expressed in HEK293T cells at 50 uM in presence of dithiothreitol by electrophysiology", "assay_type": "cell-based", "settings": "HEK-293T"}, "[12]": {"target": "Transient receptor potential cation channel subfamily A member 1 (Mus musculus) (UniProt Q8BLA8)", "assay": "Reversal of activation of mouse TRPA1 expressed in HEK293T cells at 400 uM in presence of dithiothreitol by electrophysiology", "assay_type": "cell-based", "settings": "HEK-293T"}}, "note": "Activity calls are given as the source filed them. The calls are words filed in the database; no cut-off is given here."}
{"smiles": "O=C/C=C/c1ccccc1", "values": [{"measurement": "Activity", "setting": "[1]", "value": "inactive"}, {"measurement": "EC50", "setting": "[2]", "value": 19, "unit": "µM"}, {"measurement": "Activity", "setting": "[3]", "value": "inactive"}, {"measurement": "Activity", "setting": "[4]", "value": "inactive"}]}
{"smiles": "C#CCN1C(=O)/C(=C/C(C)=O)c2ccccc21", "values": [{"measurement": "Activity", "setting": "[5]", "value": "Active"}, {"measurement": "EC50", "setting": "[2]", "value": 0.1, "unit": "µM"}]}
{"smiles": "C=CCN=C=S", "values": [{"measurement": "Activity", "setting": "[6]", "value": "Active"}, {"measurement": "Activity", "setting": "[7]", "value": "Active"}]}
{"smiles": "C=CC=O", "note": "[ACROLEIN]", "values": [{"measurement": "EC50", "setting": "[2]", "value": 5, "unit": "µM"}]}
{"smiles": "O=C1CCC(=O)N1O", "values": [{"measurement": "Activity", "setting": "[8]", "value": "inactive"}]}
{"smiles": "C#CCN=C=S", "note": "[PROPARGYL ISOTHIOCYANATE]", "values": [{"measurement": "Activity", "setting": "[5]", "value": "Active"}, {"measurement": "EC50", "setting": "[2]", "value": 18.4, "unit": "µM"}]}
{"smiles": "C#CCCCCNC(=O)CI", "note": "[IODOACETAMIDE ALKYNE]", "values": [{"measurement": "Activity", "setting": "[5]", "value": "Active"}, {"measurement": "EC50", "setting": "[2]", "value": 134, "unit": "µM"}]}
{"smiles": "NC(=O)CI", "note": "[IODOACETAMIDE]", "values": [{"measurement": "EC50", "setting": "[2]", "value": 357, "unit": "µM"}, {"measurement": "Activity", "setting": "[7]", "value": "Active"}]}
{"smiles": "OC/C=C/c1ccccc1", "values": [{"measurement": "Activity", "setting": "[2]", "value": "inactive"}]}
{"smiles": "CC(=O)CC1(O)C(=O)N(C)c2ccccc21", "note": "(stereo not drawn)", "values": [{"measurement": "Activity", "setting": "[2]", "value": "inactive"}]}
{"smiles": "CC/C=C/C=O", "note": "[PENTENAL]", "values": [{"measurement": "EC50", "setting": "[2]", "value": 5, "unit": "µM"}]}
{"smiles": "CCC=O", "values": [{"measurement": "Activity", "setting": "[2]", "value": "inactive"}]}
{"smiles": "O=C1NC(c2cccc([N+](=O)[O-])c2)=CCN1c1ccccc1O", "values": [{"measurement": "Activity", "setting": "[9]", "value": "Active"}]}
{"smiles": "CC(=O)/C=C1/C(=O)N(C)c2ccccc21", "values": [{"measurement": "Activity", "setting": "[10]", "value": "Active"}, {"measurement": "EC50", "setting": "[2]", "value": 0.8, "unit": "µM"}, {"measurement": "Activity", "setting": "[11]", "value": "Active"}, {"measurement": "Activity", "setting": "[7]", "value": "Active"}]}
{"smiles": "CS(=O)(=O)SCCN", "values": [{"measurement": "EC50", "setting": "[2]", "value": 1.58, "unit": "µM"}, {"measurement": "Activity", "setting": "[12]", "value": "Active"}, {"measurement": "Activity", "setting": "[7]", "value": "Active"}]}
